Measured values as given in paper PMC4926070, “Cembranoids from a Chinese Collection of the Soft Coral Lobophytum crassum” (Marine Drugs, 2016).
Where two headings read alike, the source gives them in different places.

Key:
[1] = tested on: LPS-induced NO production in mouse peritoneal macrophages (PEMФ); experiment: Inhibition of lipopolysaccharide (LPS)-induced nitric oxide (NO) production; assay type: cell-based; details: Peritoneal macrophage, compounds tested at 1–30 μM, read-out: IC50, inhibitory activity against LPS-induced NO production
Description: All compounds were tested for their in vitro anti-inflammatory activities. Nitric oxide (NO) is an important signaling molecule that is involved in the regulation of diverse physiological and pathological processes. Overproduction of NO is associated with various human diseases, particularly acute and chronic inflammation, while the level of NO can reflect the degree of inflammation.
(§1) A previously established protocol was followed except that 30 mM dexamethasone in DMSO was used as the positive control and each test compound (30 mM in DMSO) was diluted to 1–30 μM at r.t. before the experiment.

[2] = Cytotoxicity against mouse peritoneal macrophages; assay type: cell-based
Description: as §1

[3] = mouse peritoneal macrophages, read-out: CC50, cytotoxicity against mouse peritoneal macrophages

| SMILES | IC50 [1] [µM] | CC50 [2, 3] [µM] | CC50 [2] [µM] |
| --- | --- | --- | --- |
| COC(=O)/C1=C\C=C(\C(C)C)CCC2=CCC[C@](C)(OC2=O)C(=O)CC1 [Compound 17, ketoemblide] | 12 ± 2 | > 60 | – |
| CC1=C2CC/C(C)=C/CC[C@@]3(C)O[C@@H]3CC/C(C)=C/[C@H]2OC1=O [Compound 12, ent-sarcophine] | 24 ± 2 | – | > 60 |
| COC(=O)/C1=C\CC[C@@]2(C)O[C@@H]2CC/C(C(=O)OC)=C/C=C(/C(C)C)CC1 [Compound 13, sarcophytonolide O] | 8 ± 1 | > 60 | – |
| COC(=O)C1=CCCC2(C)OC2CCC(C(=O)OC)=CC=C(C(C)C)CC1 (stereo not shown) [Compound 1, Locrassumin A] | 17 ± 3 | > 60 | – |
| COC1(C)CC=CC(C)(O)CCC2=C(C)COC2C=C(C)CCC1O (stereo not drawn) [Compound 7, (2R*,7R*,8S*,12S*,1Z,3E,10E)-8-methoxy-2,16-epoxycembra-1(15),3,10-trien-7,12-diol] | 13 ± 2 | > 60 | – |
